The results in this text go back to PMC10706821, “Folate-Appended Hydroxypropyl-β-Cyclodextrin Induces Autophagic Cell Death in Acute Myeloid Leukemia Cells” (International Journal of Molecular Sciences, 2023).

The test system of data set [1] is HL-60 cells. In words: AML xenograft survival model. The data set is classed as in vivo, BALB/c Rag-2/JAK3 double-deficient (BRJ) mice. The note with it: HL-60 xenograft, HP-β-CyD 2086.5 mg/kg i.p. twice a day, FA-HP-β-CyD 249 mg/kg i.p. twice a day, 20 days, n = 6. The protocol:
(§1) BALB/c Rag-2/JAK3 double-deficient (BRJ) mice were housed in a specific pathogen-free barrier facility and used for the xenograft transplantation experiments. All animal experiments were approved by the Institutional Review Board of Saga University and conducted in accordance with the institutional guidelines of animal care of Saga University.
(§2) HL-60 cells or THP-1 cells were injected intravenously into BRJ mice. After 72 h, mice were injected intraperitoneally with 200 μL of vehicle, FA-HP-β-CyD (15 mM, 249 mg/kg), or HP-β-CyD (150 mM, 2086.5 mg/kg) for 20 consecutive days, and survival was monitored daily. Ara-C (100 mg/kg) was injected intraperitoneally for 5 consecutive days from 72 h after transplantation. Venetoclax (25 mg/kg) was orally administered for 20 consecutive days from 72 h after transplantation. Chimerism of human leukemic cells in the BM was determined by flow cytometry after double staining with FITC-conjugated anti-human CD45 (BD Bioscience) and PE/Cy7-conjugated anti-mouse CD45 (BioLegend) antibodies. All surgery was performed under sodium pentobarbital anesthesia to minimize pain. Mice were euthanized with ether when they became moribund or were unable to obtain food or water, as recommended by Saga University institutional guidelines. Survival data were analyzed using a log-rank nonparametric test and presented as Kaplan–Meier survival curves (n = 6 for each group).

Data set [2] has as its system THP1 cells. In words: AML xenograft survival model. In kind it is in vivo, BALB/c Rag-2/JAK3 double-deficient (BRJ) mice. The note with it: Figure 7B, HP-β-CyD 2086.5 mg/kg i.p. twice a day, FA-HP-β-CyD 249 mg/kg i.p. twice a day, Ara-C 100 mg/kg i.p., 20 days, n = 6. The protocol: as §1, §2
In data set [3] the test system is Kasumi-1. In words: modified MTT assay (Cell Counting Kit-8), cell proliferation. The data set is classed as cell-based, human. The note with it: Homo sapiens; Kasumi-1, 72 h. The protocol: The trypan blue dye exclusion method was used to evaluate cell viability. Cells (HL-60, THP1, SKM1 and Kasumi1 cells) were seeded in flat-bottomed 96-well plates at a density of 1 × 10^4 cells in 100 µL medium per well and incubated with FA-HP-β-CyD (0, 0,1, 0.25, 0.5, 0.75, 1 mM) or HP-β-CyD (0, 1, 2.5, 5, 10 mM) for 72 h. Then, viable cells were counted. Cell proliferation was evaluated by a modified MTT assay using Cell Counting Kit-8 (Dojindo Molecular Technologies, Kumamoto, Japan), as previously described. AML cells were cultured in 96-well plates at a density of 1 × 10^4 cells in 100 µL medium per well and incubated with FA-HP-β-CyD or HP-β-CyD for 72 h. […] This method is capable of quantifying synergistic (CI < 1) and antagonistic (CI > 1) effects at different dose and effect levels.
For orientation: Tetrazolium dyes change colour on reduction, which living cells bring about.

In data set [4] the test system is normal human bone marrow CD34-positive progenitor cells. Put plainly: methylcellulose colony formation assay. Particulars: 10 mM HP-β-CyD, 1 mM FA-HP-β-CyD, 1 week of culture.
Text: Human bone marrow CD34 positive cells were purchased from LONZA (Bazel, Switzerland). […] After 1 week of culture, the number of colonies was counted using an inverted microscope. Data represent the mean number of colonies ± SEM (n = 3).

By IC50 is commonly meant the point on the concentration scale where inhibition reaches its midpoint.

As for `CC(O)COC[C@H]1O[C@@H]2O[C@H]3[C@H](O)[C@@H](O)[C@@H](O[C@H]4[C@H](O)[C@@H](O)[C@@H](O[C@H]5[C@H](O)[C@@H](O)[C@@H](O[C@H]6[C@H](O)[C@@H](O)[C@@H](O[C@H]7[C@H](O)[C@@H](O)[C@@H](O[C@H]8[C@H](O)[C@@H](O)[C@@H](O[C@H]1[C@H](O)[C@H]2O)O[C@@H]8COCC(C)O)O[C@@H]7COCC(C)O)O[C@@H]6COCC(C)O)O[C@@H]5COCC(C)O)O[C@@H]4COCC(C)O)O[C@@H]3COCC(C)O` (stereo partly drawn) [HP-β-CyD, 2-Hydroxypropyl-β-cyclodextrin], the “Median Survival Time” value in data set [1] (Figure 7A, Ara-C 100 mg/kg i.p.) came out at 38 days; in data set [1] (Figure 7C, Venetoclax 25 mg/kg oral gavage daily) it was 35 days; in data set [2], 49.5 days. The half-inhibitory concentration (IC50) in data set [3] turned out to be 3.14 mM. In addition, in data set [4], the colony formation result is “reduced colony numbers”.
